Test results reported in patent publication US20110021565A1, “PIPERIDINE DERIVATIVES AS NK3 ANTAGONISTS” (priority 2007, published 2011).
Where two headings read alike, the source gives them in different places.

Assays:
[1] = target: T1, recombinant human NK3 receptor (Homo sapiens, UniProt P29371); assay: [3H]SR142801 competition binding assay
T1 construct: expressed in transfected cells; host or cells: HEK293 cells, transient expression; membrane preparation
T1 sequence (P29371 1-465): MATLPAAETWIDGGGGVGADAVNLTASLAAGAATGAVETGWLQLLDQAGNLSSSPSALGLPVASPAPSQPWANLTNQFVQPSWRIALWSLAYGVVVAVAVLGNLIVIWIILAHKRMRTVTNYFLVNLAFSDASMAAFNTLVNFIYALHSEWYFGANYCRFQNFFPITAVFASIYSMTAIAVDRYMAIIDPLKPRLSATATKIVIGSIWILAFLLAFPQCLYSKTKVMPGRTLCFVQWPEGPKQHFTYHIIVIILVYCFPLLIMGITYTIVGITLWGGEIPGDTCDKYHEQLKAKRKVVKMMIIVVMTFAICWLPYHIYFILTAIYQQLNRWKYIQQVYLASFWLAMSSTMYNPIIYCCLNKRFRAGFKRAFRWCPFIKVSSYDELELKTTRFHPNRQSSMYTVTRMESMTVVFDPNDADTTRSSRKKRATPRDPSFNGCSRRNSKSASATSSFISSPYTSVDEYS
Outline: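 Membranes from HEK293 cells transiently expressing the receptor (5 μg protein/well) incubated 75 min at RT with [3H]SR142801 at its KD and 10 compound concentrations (0.0003-10 μM), in pH 7.4 Tris buffer with MnCl2, phosphoramidon and BSA. Nonspecific binding defined with 10 μM SB222200; bound radioactivity counted after filtration. Ki from IC50 via Cheng-Prusoff; duplicates.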

[2] = tested on: symptoms of schizophrenia; details: phase II trial, cited from earlier work
[3] = [3H]SR142801, membranes of HEK293 cells transiently expressing recombinant human NK3 receptor, read-out: hNK3 Ki
[4] = representative compounds, [3H]SR142801, HEK293 membranes, human NK3 receptor, read-out: Ki NK3 h

Row | Compound | Ki [1, 3] [nM] | Ki [1, 4] [nM] | other results
1 | CC(=O)N(C)C1CCN(CCC(C)(C(=O)N[C@H](CO)c2ccccc2)c2ccc(Cl)c(Cl)c2)CC1 (stereo partly drawn) [Example 133, 4-[4-(Acetyl-methyl-amino)-piperidin-1-yl]-2-(3,4-dichloro-phenyl)-N-((S)-2-hydroxy-1-phenyl-ethyl)-2-methyl-butyramide] | 526 | – | –
2 | CC(=O)N(C)C1CCN(CCC(C)(C(=O)N[C@@H](CO)c2ccccc2)c2ccc(Cl)c(Cl)c2)CC1 (stereo partly drawn) [Example 134, 4-[4-(Acetyl-methyl-amino)-piperidin-1-yl]-2-(3,4-dichloro-phenyl)-N-((R)-2-hydroxy-1-phenyl-ethyl)-2-methyl-butyramide] | 35.6 | – | –
3 | CC(=O)N(C)C1CCN(CCC(C)(C(=O)NC(c2ccc(F)cc2)C(F)(F)F)c2ccc(Cl)c(Cl)c2)CC1 (stereo not shown) [Example 135, 4-[4-(Acetyl-methyl-amino)-piperidin-1-yl]-2-(3,4-dichloro-phenyl)-2-methyl-N-[2,2,2-trifluoro-1-(4-fluoro-phenyl)-ethyl]-butyramide] | 12.6 | – | –
4 | CC(=O)N(C)C1CCN(CCC(C)(C(=O)N[C@@H](CO)c2ccc(Cl)cc2)c2ccc(Cl)c(Cl)c2)CC1 (stereo partly drawn) [Example 136, 4-[4-(Acetyl-methyl-amino)-piperidin-1-yl]-N-[1-(4-chloro-phenyl)-2-hydroxy-ethyl]-2-(3,4-dichloro-phenyl)-2-methyl-butyramide (diastereosisomer 1)] | 9.6 | 9.6 | –
5 | CC(=O)N(C)C1CCN(CCC(C)(C(=O)N[C@H](CO)c2ccc(Cl)cc2)c2ccc(Cl)c(Cl)c2)CC1 (stereo partly drawn) [Example 137, 4-[4-(Acetyl-methyl-amino)-piperidin-1-yl]-N-[1-(4-chloro-phenyl)-2-hydroxy-ethyl]-2-(3,4-dichloro-phenyl)-2-methyl-butyramide (diastereosisomer 2)] | 56 | – | –
6 | COCCN(C(C)=O)C1CCN(CCC(C)(C(=O)N[C@@H](CO)c2ccc(Cl)c(Cl)c2)c2ccc(Cl)c(Cl)c2)CC1 (stereo partly drawn) [Example 148, 4-{4-[Acetyl-(2-methoxy-ethyl)-amino]-piperidin-1-yl}-2-(3,4-dichloro-phenyl)-N-[1-(3,4-dichloro-phenyl)-2-hydroxy-ethyl]-2-methyl-butyramide (diastreoisomer 1)] | 3.8 | 3.8 | –
7 | COCCN(C(C)=O)C1CCN(CCC(C)(C(=O)N[C@H](CO)c2ccc(Cl)c(Cl)c2)c2ccc(Cl)c(Cl)c2)CC1 (stereo partly drawn) [Example 149, 4-{4-[Acetyl-(2-methoxy-ethyl)-amino]-piperidin-1-yl}-2-(3,4-dichloro-phenyl)-N-[(S)-1-(3,4-dichloro-phenyl)-2-hydroxy-ethyl]-2-methyl-butyramide (diastreoisomer 2)] | 19.4 | – | –
8 | CC(=O)N(C)C1(c2ccccc2)CCN(CCC[C@]2(c3ccc(Cl)c(Cl)c3)CCCN(C(=O)c3ccccc3)C2)CC1 [SR 142,801, Osanetant] | – | – | activity on positive symptoms of schizophrenia ([2]; altered behaviour, delusion, hallucinations, extreme emotions, excited motor activity, incoherent speech): active on positive symptoms of schizophrenia; activity on negative symptoms of schizophrenia ([2]; depression, anhedonia, social isolation, memory and attention deficits): inactive in the treatment of negative symptoms

More lines, main results first:

Row | Ki [1, 3] [nM] | Ki [1, 4] [nM] | Compound | other results
9 | 1.1 | 1.1 | CC[C@H](NC(=O)C(C)(CCN1CCC(N(CCOC)C(C)=O)CC1)c1ccc(Cl)c(Cl)c1)c1ccccc1 (stereo partly drawn) [Example 152, 4-{4-[Acetyl-(2-methoxy-ethyl)-amino]-piperidin-1-yl}-2-(3,4-dichloro-phenyl)-2-methyl-N-((S)-1-phenyl-propyl)-butyramide] | –
10 | 60.9 | – | CC[C@@H](NC(=O)C(C)(CCN1CCC(N(CCOC)C(C)=O)CC1)c1ccc(Cl)c(Cl)c1)c1ccccc1 (stereo partly drawn) [Example 153, 4-{4-[Acetyl-(2-methoxy-ethyl)-amino]-piperidin-1-yl}-2-(3,4-dichloro-phenyl)-2-methyl-N-((R)-1-phenyl-propyl)-butyramide] | –
11 | 200 | – | CC(=O)NC1CCN(CCC(C)(C(=O)N[C@@H](CO)c2ccc(F)cc2)c2ccc(Cl)c(Cl)c2)CC1 (stereo partly drawn) [Example 160, 4-(4-Acetylamino-piperidin-1-yl)-2-(3,4-dichloro-phenyl)-N-[(R)-1-(4-fluoro-phenyl)-2-hydroxy-ethyl]-2-methyl-butyramide] | –
12 | 44.2 | – | CC[C@H](NC(=O)C(C)(CCN1CCC(NC(C)=O)CC1)c1ccc(Cl)c(Cl)c1)c1ccccc1 (stereo partly drawn) [Example 161, 4-(4-Acetylamino-piperidin-1-yl)-2-(3,4-dichloro-phenyl)-2-methyl-N-((S)-1-phenyl-propyl)-butyramide] | –
13 | 0.8 | 0.8 | CCCN(C(C)=O)C1CCN(CCC(C)(C(=O)N[C@@H](CC)c2ccccc2)c2ccc(Cl)c(Cl)c2)CC1 (stereo partly drawn) [Example 164, 4-[4-(Acetyl-propyl-amino)-piperidin-1-yl]-2-(3,4-dichloro-phenyl)-2-methyl-N-((S)-1-phenyl-propyl)-butyramide] | –
14 | 14.5 | – | CCCN(C(C)=O)C1CCN(CCC(C)(C(=O)N[C@H](CC)c2ccccc2)c2ccc(Cl)c(Cl)c2)CC1 (stereo partly drawn) [Example 165, 4-[4-(Acetyl-propyl-amino)-piperidin-1-yl]-2-(3,4-dichloro-phenyl)-2-methyl-N-((R)-1-phenyl-propyl)-butyramide] | –
15 | 3 | 3 | CC[C@H](NC(=O)C(C)(CCN1CCC(N(CC)C(C)=O)CC1)c1ccc(Cl)c(Cl)c1)c1ccccc1 (stereo partly drawn) [Example 168, 4-[4-(Acetyl-ethyl-amino)-piperidin-1-yl]-2-(3,4-dichloro-phenyl)-2-methyl-N-((S)-1-phenyl-propyl)-butyramide] | –
16 | 57.6 | – | CC[C@@H](NC(=O)C(C)(CCN1CCC(N(CC)C(C)=O)CC1)c1ccc(Cl)c(Cl)c1)c1ccccc1 (stereo partly drawn) [Example 169, 4-[4-(Acetyl-ethyl-amino)-piperidin-1-yl]-2-(3,4-dichloro-phenyl)-2-methyl-N-((R)-1-phenyl-propyl)-butyramide] | –
